Data published in patent publication US4382920A, “Hormone-like peptides and use thereof” (Perignon Investments Ltd., priority 1980, dated 1983).

Assay: Body temperature of mice after intravenous injection
Assay type: in vivo
Conditions: for body temperature at 0 min: amount injected as listed per substance
Procedure: Type: Out-breed, white NMRI
Average body weight: 24-27 gm
Diet: Standard food pellet
Mice fasted 12-15 hrs. prior to testing (water given during this period)
Mice all separated from one another
Mice kept in quiet and dark environment
Testing time: 1 p.m.-3 p.m. each day
Test solution is prepared by:
(b) dissolving a known amount of the refined brain extract in 0.4 ml of trishydrochloric buffer and adjusting the pH of the solution to from about 7.0 to about 7.4 by titrating with microdrops of 1 M or 0.1 M sodium hydroxide solution.
Volume of solution injected into mice:
Solution is at room temperature when injected into mice.
Mouse is placed in restrainer
Injection is made in the tail vein
Injection time: 2 minutes
Body temperature is measured by inserting a thermistor into the anal cavity to a depth of 11/2 cm (thermistor is made by Thermovit, Fu. Armatherm, Lemgo, W. Germany)
Temperature measurements are begun immediately after injection, i.e., 2 minutes after injection started
The extract obtained from the brain of 40 lungfish is used. Five mice are used in obtaining the data on the aroused lungfish and nine mice are used for the data on the estivating lungfish.

| Structure (SMILES) | body temperature at 0 min (pH 7.0-7.4) | body temperature at 2 min | body temperature at 5 min | body temperature at 10 min | body temperature at 20 min | body temperature at 30 min | body temperature at 40 min | body temperature at 50 min | body temperature at 60 min | also measured |
| --- | --- | --- | --- | --- | --- | --- | --- | --- | --- | --- |
| [Cl-].[Na+] [3.0 M NaCl, NaCl] | 36.0 | 34.9 | 36.5 | 38.1 | 37.9 | 37.4 | 37.4 | 37.6 | 37.7 | – |
| CC(=O)[O-].[Na+] [1.0 M SODIUM ACETATE, SODIUM ACETATE] | 37.0 | – | 37.5 | 38.0 | 38.3 | 38.5 | 38.0 | 38.1 | 38.2 | body temperature at 0 min (pH 7.0-7.4, listed as 3.0 M SODIUM ACETATE): 37.5; body temperature at 5 min (listed as 3.0 M SODIUM ACETATE): 36.2; body temperature at 10 min (listed as 3.0 M SODIUM ACETATE): 37.0; body temperature at 20 min (listed as 3.0 M SODIUM ACETATE): 38.0; body temperature at 30 min (listed as 3.0 M SODIUM ACETATE): 37.7; body temperature at 40 min (listed as 3.0 M SODIUM ACETATE): 38.1; body temperature at 50 min (listed as 3.0 M SODIUM ACETATE): 38.6; body temperature at 60 min (listed as 3.0 M SODIUM ACETATE): 38.5 |
| O=C(O)CCCC(=O)O [GLUTARIC ACID] | 36.6 | 36.5 | 37.0 | 38.1 | 38.5 | 38.5 | 38.4 | 38.6 | 39.0 | – |
| O=C([O-])O.[K+] [3.0 M KHCO3, KHCO3] | 37.1 | 34.7 | 35.0 | 36.5 | 37.8 | 37.9 | 38.4 | 38.4 | 38.0 | body temperature at 0 min (pH 7.0-7.4, listed as 0.3 M KHCO3): 37.6; body temperature at 0 min (pH 7.0-7.4, listed as 1.0 M KHCO3): 38.0; body temperature at 2 min (listed as 0.3 M KHCO3): 36.3; body temperature at 2 min (listed as 1.0 M KHCO3): 37.2; body temperature at 5 min (listed as 0.3 M KHCO3): 37.2; body temperature at 5 min (listed as 1.0 M KHCO3): 37.3; body temperature at 10 min (listed as 0.3 M KHCO3): 38.0; body temperature at 10 min (listed as 1.0 M KHCO3): 38.5; body temperature at 20 min (listed as 1.0 M KHCO3): 39.5; body temperature at 30 min (listed as 0.3 M KHCO3): 38.3; body temperature at 30 min (listed as 1.0 M KHCO3): 39.0; body temperature at 40 min (listed as 1.0 M KHCO3): 39.1; body temperature at 50 min (listed as 0.3 M KHCO3): 38.3 |
| N[C@@H](Cc1c[nH]c2ccccc12)C(=O)O [TRYPTOPHAN] | 36.9 | 36.4 | 36.8 | 37.1 | 37.4 | 36.5 | 36.8 | 37.0 | 36.9 | – |
| N[C@@H](CC(=O)O)C(=O)O [ASPARTIC ACID] | 36.7 | 35.5 | 36.7 | 38.0 | 37.5 | 37.6 | 37.8 | 37.8 | 37.8 | – |
